We go through 51 compounds from US8686143B2, “Compounds useful as inhibitors of Janus kinases” (Vertex Pharmaceuticals Incorporated, priority 2007, dated 2014).

By Ki is commonly meant the equilibrium dissociation constant of an inhibitor or competing ligand from its target. High values mean lower affinity, low ones higher affinity.

The experiment deals with T1, JAK3 (Homo sapiens, UniProt P52333).
T1 sequence (P52333 1-1124): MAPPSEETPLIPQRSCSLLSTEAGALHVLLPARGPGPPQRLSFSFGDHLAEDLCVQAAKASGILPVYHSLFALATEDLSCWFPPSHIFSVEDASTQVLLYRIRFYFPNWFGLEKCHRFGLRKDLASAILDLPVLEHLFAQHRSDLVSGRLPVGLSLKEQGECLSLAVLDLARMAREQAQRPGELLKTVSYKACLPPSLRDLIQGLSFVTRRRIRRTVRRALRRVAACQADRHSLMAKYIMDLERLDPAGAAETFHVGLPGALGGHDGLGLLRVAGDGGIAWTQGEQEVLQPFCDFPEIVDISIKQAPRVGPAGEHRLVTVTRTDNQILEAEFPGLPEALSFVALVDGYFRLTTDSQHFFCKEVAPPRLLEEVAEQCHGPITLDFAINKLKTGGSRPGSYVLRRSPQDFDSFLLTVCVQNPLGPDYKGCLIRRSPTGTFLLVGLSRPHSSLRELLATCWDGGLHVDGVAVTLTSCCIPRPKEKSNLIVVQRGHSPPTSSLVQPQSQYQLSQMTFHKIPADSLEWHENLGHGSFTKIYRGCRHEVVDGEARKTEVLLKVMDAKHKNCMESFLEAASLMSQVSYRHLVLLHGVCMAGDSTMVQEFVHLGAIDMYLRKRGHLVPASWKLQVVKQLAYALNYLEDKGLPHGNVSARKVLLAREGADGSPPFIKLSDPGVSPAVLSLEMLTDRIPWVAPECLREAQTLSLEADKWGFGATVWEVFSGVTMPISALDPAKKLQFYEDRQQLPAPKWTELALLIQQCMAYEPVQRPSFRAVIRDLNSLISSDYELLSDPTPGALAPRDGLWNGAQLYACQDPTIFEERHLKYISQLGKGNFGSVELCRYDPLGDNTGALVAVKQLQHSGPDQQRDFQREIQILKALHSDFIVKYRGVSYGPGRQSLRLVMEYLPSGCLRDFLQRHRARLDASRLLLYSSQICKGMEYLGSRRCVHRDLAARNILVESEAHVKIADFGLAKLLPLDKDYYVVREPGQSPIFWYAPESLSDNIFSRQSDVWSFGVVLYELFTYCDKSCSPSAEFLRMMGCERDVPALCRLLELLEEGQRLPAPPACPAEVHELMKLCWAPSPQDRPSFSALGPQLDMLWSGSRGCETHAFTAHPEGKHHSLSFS
Kind of experiment: JAK3 Inhibition Assay (33P incorporation into poly(Glu)4Tyr). As to conditions: for Ki: 1 nM JAK3, 5 μM ATP, 1 μM poly(Glu)4Tyr, 25° C. The class given is biochemical. As to the method:
Compounds were screened for their ability to inhibit JAK3 using the assay shown below. Reactions were carried out in a kinase buffer containing 100 mM HEPES (pH 7.4), 1 mM DTT, 10 mM MgCl2, 25 mM NaCl, and 0.01% BSA. Substrate concentrations in the assay were 5 μM ATP (200 uCi/μmole ATP) and 1 μM poly(Glu)4Tyr. Reactions were carried out at 25° C. and 1 nM JAK3.
To each well of a 96 well polycarbonate plate was added 1.5 μl of a candidate JAK3 inhibitor along with 50 μlof kinase buffer containing 2 μM poly(Glu)4Tyr and 10 μM ATP. This was then mixed and 50 μl of kinase buffer containing 2 nM JAK3 enzyme was added to start the reaction. After 20 minutes at room temperature (25° C.), the reaction was stopped with 50 μl of 20% trichloroacetic acid (TCA) that also contained 0.4 mM ATP. The entire contents of each well were then transferred to a 96 well glass fiber filter plate using a TomTek Cell Harvester. After washing, 60 μl of scintillation fluid was added and ^33P incorporation detected on a Perkin Elmer TopCount.

SMILES strings stand for the structures. Where only a bound is given, the exact number is not on record here.

`O=C(NCC(F)(F)F)[C@H]1CCCN1c1nc(-c2ccc3c(c2)OCO3)ncc1F` [Compound 88]: the Ki lay within 10 to 50 µM.
As for `CC(C)NC(=O)c1cc(-c2nccc(N[C@@H](C(=O)NCC(F)(F)F)C(C)C)n2)c[nH]1` [Compound 111], the “inhibition of JAK3 at concentrations of 50 μM” value (“inhibition of JAK3 … of 50 μM” below) is on record as “did not inhibit”.
`CC(C)(Nc1ccnc(-c2c[nH]c(C(=O)NCc3ccccc3)c2)n1)C(=O)NCC(F)(F)F` [Compound 99] yielded a Ki of 10 to 50 µM.
In the case of `Nc1nc(Nc2ccc(F)cc2)nn1-c1cc(NCCC(=O)NCC(F)(F)F)ncn1` [Compound 35], the Ki was ≤ 1 µM.
`C[C@@H](Nc1nc(-c2cccnc2F)ncc1F)C(=O)NCC(F)(F)F` [Compound 17]: the “inhibition of JAK3 … of 50 μM” value is recorded as “did not inhibit”.
Same read-out and setting: the result for `O=C(NCC(F)(F)F)[C@H]1CCCN1c1nc(-c2ccc(F)nc2)ncc1F` [Compound 22] reads “did not inhibit”.
Take `O=C(NCC(F)(F)F)[C@H]1CCCN1c1ccnc(-c2c[nH]c(C(=O)N3CC=CC3)c2)n1` [Compound 139]: the Ki was ≤ 1 µM.
`O=C(NCc1ccccc1)c1cc(-c2ncc(F)c(N3CCC[C@@H]3C(=O)NCC(F)(F)F)n2)c[nH]1` [Compound 116] yielded a Ki of 10 to 50 µM.
In the case of `CC(C)[C@@H](Nc1nc(-c2ccc3c(c2)OCO3)ncc1F)C(=O)NCC(F)(F)F` [Compound 76], the Ki is 10 to 50 µM.
Same read-out and setting: next, `CC(C)(Nc1nc(-c2ccc(=O)[nH]c2)ncc1F)C(=O)NCC(F)(F)F` [Compound 84]: 10 to 50 µM.
On the same count and under the same terms, next, `CC(C)(Nc1ccnc(-c2c[nH]c(C(=O)N3CCCC3)c2)n1)C(=O)NCC(F)(F)F` [Compound 101]: ≤ 1 µM.
Consider `COc1ccc(-c2ncc(F)c(NCC(=O)NCC(F)(F)F)n2)cn1` [Compound 10], for which the “inhibition of JAK3 … of 50 μM” value is “did not inhibit”.
As for `CC(C)[C@@H](Nc1nc(-c2ccc3nc(N)sc3c2)ncc1F)C(=O)NCC(F)(F)F` [Compound 78], the Ki lay within 1 to 10 µM.
Take `COc1ccc(-c2nccc(NC(C)(C)C(=O)NCC(F)(F)F)n2)cc1` [Compound 149]: the “inhibition of JAK3 … of 50 μM” value is “did not inhibit”.
The same measure, in the same setting: next, `C[C@H](Nc1nc(-c2ccc(F)nc2)ncc1F)C(=O)NCC(F)(F)F` [Compound 1]: “did not inhibit”; `CC(=O)Nc1nc2ccc(-c3ncc(F)c(N4CCC[C@@H]4C(=O)NCC(F)(F)F)n3)cc2s1` [Compound 92]: “did not inhibit”.
Consider `O=C(NCC(F)(F)F)[C@H]1CCCN1c1ccnc(-c2c[nH]c3ccc(Cl)cc23)n1` [Compound 159], for which the Ki is 10 to 50 µM.
Turning to `Nc1nc(NCC2CCCO2)nn1-c1ncc(F)c(N2CCC[C@@H]2C(=O)NCC(F)(F)F)n1` (stereo partly drawn) [Compound 55], the “inhibition of JAK3 at concentrations of 5.0 μM” value (from here on “inhibition of JAK3 … of 5.0 μM”) is recorded as “did not inhibit”.
`CC(C)[C@@H](Nc1nc(-c2c[nH]c(C(=O)NC3CC3)c2)ncc1F)C(=O)NCC(F)(F)F` [Compound 126] returned a Ki of 10 to 50 µM.
Still for that read-out and setting: the result for `Nc1nc(Nc2ccccc2)nn1-c1ncc(F)c(N2CCC[C@@H]2C(=O)NCC(F)(F)F)n1` [Compound 51] reads 1 to 10 µM.
Regarding `COc1ccc(-c2ncc(F)c(N[C@@H](C(=O)NCC(F)(F)F)C(C)C)n2)cn1` [Compound 81], the “inhibition of JAK3 … of 50 μM” value was “did not inhibit”.
For the compound `Nc1nc(NC2CC2)nn1-c1ncc(F)c(N2CCC[C@@H]2C(=O)NCC(F)(F)F)n1` [Compound 52], the “inhibition of JAK3 … of 5.0 μM” value is on record as “did not inhibit”.
`O=C(CNc1nc(-c2cccnc2)ncc1F)NCC(F)(F)F` [Compound 11] showed a Ki of 1 to 10 µM.
For `CC(C)(Nc1nc(-c2ccc3ncsc3c2)ncc1F)C(=O)NCC(F)(F)F` [Compound 140], the Ki is ≤ 1 µM.
For `O=C(CCNc1nc(-c2cn[nH]c2)ncc1F)NCC(F)(F)F` [Compound 16], the “inhibition of JAK3 … of 50 μM” value is recorded as “did not inhibit”.
`O=C(NCC(F)(F)F)[C@H]1CCCN1c1ccnc(-c2ccc3ncccc3c2)n1` [Compound 60]: the Ki lay within 1 to 10 µM.
The same measure, in the same setting: next, `CC(C)C(Nc1nc(-c2c[nH]c(C(=O)NCC3CC3)c2)ncc1F)C(=O)NCC(F)(F)F` (stereo not drawn) [Compound 106]: 10 to 50 µM; `CC(C)(Nc1ccnc(-c2cccnc2N)n1)C(=O)NCC(F)(F)F` [Compound 31]: 1 to 10 µM.
Regarding `CC(C)[C@@H](Nc1nc(-c2ccc3c(c2)OCCO3)ncc1F)C(=O)NCC(F)(F)F` [Compound 166], the “inhibition of JAK3 … of 50 μM” value is “did not inhibit”.
`CC(=O)Nc1nc2ccc(-c3ncc(F)c(NC(C)(C)C(=O)NCC(F)(F)F)n3)cc2s1` [Compound 64] showed a Ki of 1 to 10 µM.
`CC[C@H](Nc1cc(-n2nc(Nc3ccc(F)cc3)nc2N)ncn1)C(=O)NCC(F)(F)F` [Compound 34]: the Ki is ≤ 1 µM.
Consider `Nc1nc(Nc2ccccc2Cl)nn1-c1ncc(F)c(N2CCC[C@@H]2C(=O)NCC(F)(F)F)n1` [Compound 41], for which the “inhibition of JAK3 … of 5.0 μM” value was “did not inhibit”.
Consider `CC(C)(Nc1nc(-c2ccc3ncccc3c2)ncc1F)C(=O)NCC(F)(F)F` [Compound 68], for which the Ki is ≤ 1 µM.
In turn, `CC(C)(Nc1ccnc(-c2c[nH]c(=O)c(N)c2)n1)C(=O)NCC(F)(F)F` [Compound 136] gave a Ki of 1 to 10 µM.
In turn, `CC(C)NC(=O)c1cc(-c2nccc(NC(C)(C)C(=O)NCC(F)(F)F)n2)c[nH]1` [Compound 100] displayed a Ki of 10 to 50 µM.
In the case of `C[C@@H](Nc1nc(-c2ccc(F)nc2)ncc1F)C(=O)NCC(F)(F)F` [Compound 19], the “inhibition of JAK3 … of 50 μM” value was “did not inhibit”.
Consider `CC(C)(Nc1ccnc(-c2ccc3ncsc3c2)n1)C(=O)NCC(F)(F)F` [Compound 154], for which the Ki is ≤ 1 µM.
Still for that read-out and setting: the result for `CNC(=O)c1cc(-c2ncc(F)c(N3CCC[C@@H]3C(=O)NCC(F)(F)F)n2)c[nH]1` [Compound 115] reads 10 to 50 µM; that for `CC(C)[C@@H](Nc1ccnc(-c2c[nH]c(C(=O)NCc3ccccc3)c2)n1)C(=O)NCC(F)(F)F` [Compound 110], 1 to 10 µM.
In the case of `Nc1ccc(Nc2nc(N)n(-c3ncc(F)c(N4CCCC4C(=O)NCC(F)(F)F)n3)n2)cc1` (stereo not drawn) [Compound 56], the Ki is ≤ 1 µM.
Still for that read-out and setting: the result for `CC(C)[C@@H](Nc1nc(-c2ccc(O)cc2)ncc1F)C(=O)NCC(F)(F)F` [Compound 142] reads 10 to 50 µM.
Take `CCCNc1nc(N)n(-c2ncc(F)c(N3CCC[C@@H]3C(=O)NCC(F)(F)F)n2)n1` [Compound 54]: the “inhibition of JAK3 … of 5.0 μM” value was “did not inhibit”.
As for `CC(C)[C@@H](Nc1ccnc(-c2c[nH]c(C(=O)NCC3CC3)c2)n1)C(=O)NCC(F)(F)F` [Compound 112], the Ki fell in the range of 1 to 10 µM.
On the same count and under the same terms, next, `CC(C)(Nc1ccnc(-c2ccc3c(c2)OCO3)n1)C(=O)NCC(F)(F)F` [Compound 74]: ≤ 1 µM.
As for `COc1ccc(-c2ncc(F)c(N[C@H](C)C(=O)NCC(F)(F)F)n2)cn1` [Compound 18], the “inhibition of JAK3 … of 50 μM” value is recorded as “did not inhibit”.
As to `O=C(NCC(F)(F)F)[C@@H]1CCCN1c1nc(-c2cccnc2)ncc1F` [Compound 26], the Ki fell in the range of 1 to 10 µM.
For `C[C@H](Nc1nc(-n2nc(Nc3ccc(F)cc3)nc2N)ncc1F)C(=O)NCC(F)(F)F` [Compound 45], the Ki is 1 to 10 µM.
For the compound `Nc1nc(Nc2ccc(F)cc2)nn1-c1cc(NCC(=O)NCC(F)(F)F)ncn1` [Compound 36], the Ki is ≤ 1 µM.
For the compound `O=C(CNc1nc(-c2ccc(F)nc2)ncc1F)NCC(F)(F)F` [Compound 9], the “inhibition of JAK3 … of 50 μM” value is “did not inhibit”.
Take `CC(C)(Nc1ccnc(-c2c[nH]c(C(=O)NC3CC3)c2)n1)C(=O)NCC(F)(F)F` [Compound 98]: the Ki is 1 to 10 µM.
The same measure, in the same setting: the result for `CC(C)(Nc1ccnc(-c2c[nH]c(C(=O)N3CC=CC3)c2)n1)C(=O)NCC(F)(F)F` [Compound 102] reads ≤ 1 µM.
